Measurements as given in US20240300902A1, “NOVEL TRANSGLUTAMINASE 2 INHIBITOR AND USE THEREOF” (MD BIOLAB CO., LTD., priority 2021, published 2024).

Assays:
[1] = tested on: MDA-MB-231 cells; assay: Protein expression level change in TNBC breast cancer cells according to treatment time, western blot; assay type: cell-based; settings: MDA-MB-231, 24, 48 and 72 hours
[2] = Toxicity by 3-week DRF oral administration; assay type: in vivo, ICR mice; settings: once a day for 3 weeks, 500 to 2000 mg/kg
Description: LDD3959 was administered once a day for 3 weeks at each concentration (in the range of 500 to 2000 mg/kg), adverse events during the course of administration were checked, and the subjects were sacrificed the next day after the end of administration to perform weight measurement, hematological analysis, and biochemical analysis for each organ. In addition, the same experiment was performed on five ICR female mice and five ICR male mice to identify gender-dependent differences.

[3] = target: T1, guinea pig liver-originated transglutaminase 2 (Cavia cutleri, UniProt P08587); assay: In vitro transglutaminase 2 assay (1), [1,4-14C] putrescine incorporation into succinylated casein; assay type: biochemical
T1 construct: 1 mU of guinea pig liver-originated transglutaminase 2 (Sigma, St. Louis, MO, USA); purchased Sigma; host or cells: guinea pig liver
T1 sequence (P08587 1-690): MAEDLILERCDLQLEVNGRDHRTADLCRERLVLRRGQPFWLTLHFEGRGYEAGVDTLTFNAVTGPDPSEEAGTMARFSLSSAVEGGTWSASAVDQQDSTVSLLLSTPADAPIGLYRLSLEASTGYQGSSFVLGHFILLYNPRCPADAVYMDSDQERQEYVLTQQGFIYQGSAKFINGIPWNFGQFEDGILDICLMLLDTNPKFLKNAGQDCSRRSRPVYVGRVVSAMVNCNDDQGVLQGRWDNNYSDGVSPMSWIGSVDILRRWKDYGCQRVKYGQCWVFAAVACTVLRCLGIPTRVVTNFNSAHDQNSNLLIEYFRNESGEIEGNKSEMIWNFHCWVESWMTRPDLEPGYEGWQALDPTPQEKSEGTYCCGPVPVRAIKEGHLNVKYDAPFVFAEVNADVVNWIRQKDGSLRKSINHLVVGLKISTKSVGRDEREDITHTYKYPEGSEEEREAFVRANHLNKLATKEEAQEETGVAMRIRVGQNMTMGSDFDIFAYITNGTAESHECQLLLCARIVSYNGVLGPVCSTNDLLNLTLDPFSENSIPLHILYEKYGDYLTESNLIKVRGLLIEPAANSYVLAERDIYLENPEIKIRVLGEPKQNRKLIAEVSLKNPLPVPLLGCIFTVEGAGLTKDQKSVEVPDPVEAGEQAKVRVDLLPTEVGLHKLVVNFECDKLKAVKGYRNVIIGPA
Description: Incorporation of [1,4-14C] putrescine into succinylated casein was measured to determine the inhibitory effect of each compound on the activity of transglutaminase 2 (TGase 2). 1 mU of guinea pig liver-originated transglutaminase 2 (Sigma, St. Louis, MO, USA) was preincubated with various concentrations of GK13 or GK921 in a 0.1 mL reaction buffer with or without 10 mM CaCl2 for 10 minutes, and 0.4 mL of a substrate solution containing 2% (w/v) succinylated casein and 100 nCi of [1,4-14C] putrescine. After incubation at 37° C. for 1 hour, 4 mL of cold (4° C.) 7.5% (w/v) trichloroacetic acid (TCA) was added to terminate the reaction. The TCA-insoluble precipitate was recovered with a GF/A-grade glass filter (Millipore, Billerica, MA, USA), washed with cold 5% (w/v) TCA, dried, and assessed with a scintillation counter (Beckman Coulter, Brea, CA, USA) to evaluate radiolabel binding. Transglutaminase 2 which was pre-incubated only with a buffer was used as a positive control. The scintillation counts were compared between the example and the positive control, and IC50 values were determined through the logistic linear regression method. The presented data were the mean values of three independent experiments. In this experimental example and the following experimental example, Streptonigrin (described as KN383 in each figure of the drawing), which is an existing transglutaminase 2 inhibitor, was used as a positive control.

[4] = tested on: ACHN cells; assay: Preclinical xenograft tumor model (ACHN, BALB/c nude mice); assay type: in vivo; settings: 1 mg/kg or 10 mg/kg PO once daily, 5 days per week
Description: Six-week-old male-specific, pathogen-free BALB/c nude mice (n=20) were purchased from the central lab (Animal Inc., Seoul, Korea). Each mouse was injected subcutaneously with ACHN cells (5.0×10^6 cells/each). When tumors reached an appropriate size (100 to 150 mm^3 for ACHN), mice were randomly selected and classified into 4 groups (n=4 to 5) according to the volume and weight of the tumor: The control group was untreated; the streptonigrin-treated group was administered in an amount of 0.2 mg/kg; and the LDD3959-treated group was administered in an amount of 1 mg/kg or 10 mg/kg. The streptonigrin and LDD3959 were orally administered to each treatment group, once daily for 5 days per week. For tumor identification, the mice were euthanized with 7.5% CO2 and the tumors were recovered for immunohistochemical analysis. The tumor volume was calculated according to the following equation: V=(A×B×B)/2 where V is the volume (mm^3), A is the long diameter (mm), and B is the short diameter (mm). The experiment was reviewed and approved by the Institutional Animal Care and Use Committee (IACUC) of the National Cancer Center Research Institute (NCCRI). […]

[5] = Toxicity by single oral administration; assay type: in vivo, ICR mice; settings: 500 to 2000 mg/kg
Description: LDD3959 was orally administered once for each concentration in the range of 500 to 2000 mg/kg, and adverse events (body weight changes, feed intake changes, general appearance changes) were checked for 2 weeks. After 2 weeks of administration, the mice were sacrificed. Then, the mice underwent hematological examination and measurement of weight change of each organ thereof. In addition, the same experiment was performed on five ICR female mice and five ICR male mice to identify gender-dependent differences.

Which AKT/mTOR signals [1] does the source give for `O=C1C(Cl)=C(Cl)C(=O)c2[nH]c(-c3ccc(Br)c(F)c3)nc21` [LDD3959, 2-(4-bromo-3-fluorophenyl)-5,6-dichloro-1H-benzo[d]imidazole-4,7-dione] here?
Its AKT/mTOR signals is “AKT/mTOR signals were inhibited”.

And the NFκB complexes [1]?
The NFκB complexes was “NFκB complexes were inhibited”.

What about the adverse events [2] of the same compound?
The adverse events was “no specific adverse events occurred”.

And the “hematological and biochemical tests” value [2]?
Its value is “no probable adverse events”.

And the deaths ([2]; female and male ICR mice)?
The deaths was “no deaths of the subjects occurred”.

What about the “mean value of the 2 μM LDD3959” value ([3]; 2 μM, negative control 248.5, control 3606.5, standard deviation 0.01) of the same compound?
The value was 0.09.

And the “TGase2 enzyme activity inhibitory effect compared with streptonigrin (KN383, positive control)” value ([3]; same dose (2 μM))?
Its value is “two-fold or greater stronger TGase2 enzyme activity inhibitory effects than the control”.

What about the “tumor volume increase rate” value [4] of the same compound?
Its value is “tumor volume increase rate decreased as the LDD3959 dose increased”.

And the deaths ([5]; 2 weeks, female and male ICR mice)?
The deaths was “no deaths of the subjects occurred”.

And the “adverse responses in blood” value ([5]; after 2 weeks)?
Its value is “no specific adverse responses occurred in blood”.
